# Results as given in patent US10532995B2, “Substituted pyrazole compounds as serine protease inhibitors” (VERSEON CORPORATION, priority 2015, dated 2020).
# Molecular target: T1, Human thrombin (Homo sapiens, UniProt P00734)
# T1 construct: purchased Haematologic Technologies Inc
# Test: Thrombin protease activity inhibition, chromogenic substrate S-2238
# Assay type: biochemical
# Settings: 3 nM thrombin, 125 μM S-2238, 10 min pre-incubation, RT
# Summary of the method: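 Thrombin at 3 nM final in 0.05 M Tris pH 7.4, 0.015 M NaCl, 0.01% PEG-8000, at room temperature; compounds as ten-point three-fold dilutions.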
row,SMILES,IC50 [nM]
1,"COc1ccccc1C(=O)n1nc(C2CCCN2C(=O)C(C)(C)C)cc1NCc1ccc(Cl)s1 (stereo not drawn) [Entry 90, 1-[2-(5-[(5-chlorothiophen-2-yl)methyl]amino-1-(2-methoxybenzoyl)-1H-pyrazol-3-yl)pyrrolidin-1-yl]-2,2-dimethylpropan-1-one]",100 to 1000
2,"O=S(=O)(N1CCOCC1)N1CCC(c2cc(NCc3ccc(Cl)s3)[nH]n2)CC1 [Entry 207, N-[(5-chlorothiophen-2-yl)methyl]-3-[1-(morpholine-4-sulfonyl)piperidin-4-yl]-1H-pyrazol-5-amine]",> 100000
3,"O=C(N1CCOCC1)N1CCC(c2cc(NCc3ccc(Cl)s3)[nH]n2)CC1 [Entry 203, N-[(5-chlorothiophen-2-yl)methyl]-3-[1-(morpholine-4-carbonyl)piperidin-4-yl]-1H-pyrazol-5-amine]",> 100000
4,"CC1(c2cc(NCc3ccc(Cl)s3)n(C(=O)c3ccsc3)n2)CCCNC1=O (stereo not drawn) [Entry 123, 3-(5-[(5-chlorothiophen-2-yl)methyl]amino-1-(thiophene-3-carbonyl)-1H-pyrazol-3-yl)-3-methylpiperidin-2-one]",100 to 1000
5,"COC(C)(C)C(=O)n1nc(C2CCNCC2)c(F)c1NCc1ccc(Cl)s1 [Entry 86, 1-(5-[(5-chlorothiophen-2-yl)methyl]amino-4-fluoro-3-(piperidin-4-yl)-1H-pyrazol-1-yl)-2-methoxy-2-methylpropan-1-one]",100 to 1000
6,"COc1ccccc1C(=O)n1nc(C2CCN(CC(F)(F)F)CC2)cc1NCc1ccc(Cl)s1 [Entry 160, N-[(5-chlorothiophen-2-yl)methyl]-1-(2-methoxybenzoyl)-3-[1-(2,2,2-trifluoroethyl)piperidin-4-yl]-1H-pyrazol-5-amine]",1000 to 10000
7,"O=C(c1ccoc1)n1nc(C2CNC2)cc1NCc1ccc(Cl)s1 [Entry 128, 3-(azetidin-3-yl)-N-[(5-chlorothiophen-2-yl)methyl]-1-(furan-3-carbonyl)-1H-pyrazol-5-amine; trifluoroacetic acid]",1000 to 10000
8,"CC(C)(C)OC(=O)N1CCCC1(C)c1cc(NCc2ccc(Cl)s2)n(C(=O)C(C)(C)CO)n1 (stereo not drawn) [Entry 274, tert-butyl 2-(5-[(5-chlorothiophen-2-yl)methyl]amino-1-(3-hydroxy-2,2-dimethylpropanoyl)-1H-pyrazol-3-yl)-2-methylpyrrolidine-1-carboxylate]",100 to 1000
9,"COc1ccccc1C(=O)n1nc(C2(C)CCCN2)cc1NCc1ccc(Cl)s1 (stereo not drawn) [Entry 152, N-[(5-chlorothiophen-2-yl)methyl]-1-(2-methoxybenzoyl)-3-(2-methylpyrrolidin-2-yl)-1H-pyrazol-5-amine; formic acid]",100 to 1000
10,"COc1ccccc1C(=O)n1nc(C2(C)CCNC2=O)cc1NCc1ccc(Cl)s1 (stereo not drawn) [Entry 118, 3-(5-[(5-chlorothiophen-2-yl)methyl]amino-1-(2-methoxybenzoyl)-1H-pyrazol-3-yl)-3-methylpyrrolidin-2-one]",100 to 1000
11,"O=C(c1ccsc1)n1nc(C2CCCNC2)cc1NCc1ccc(Cl)s1 (stereo not drawn) [Entry 185, N-[(5-chlorothiophen-2-yl)methyl]-3-(piperidin-3-yl)-1-(thiophene-3-carbonyl)-1H-pyrazol-5-amine]",100 to 1000
12,"C=CCOC(=O)N1CCN(C(=O)CN2CCOCC2)CC1c1cc(NCc2ccc(Cl)s2)n(C(=O)C(C)(C)C)n1 (stereo not drawn) [Entry 245, prop-2-en-1-yl 2-(5-[(5-chlorothiophen-2-yl)methyl]amino-1-(2,2-dimethylpropanoyl)-1H-pyrazol-3-yl)-4-[2-(morpholin-4-yl)acetyl]piperazine-1-carboxylate]",1000 to 10000
13,"C=CCOC(=O)N1CCN(S(C)(=O)=O)CC1c1cc(NCc2ccc(Cl)s2)[nH]n1 (stereo not drawn) [Entry 252, prop-2-en-1-yl 2-(5-[(5-chlorothiophen-2-yl)methyl]amino-1H-pyrazol-3-yl)-4-methanesulfonylpiperazine-1-carboxylate]",> 100000
14,"Clc1ccc(CNc2cc(C3CCN(CC4CC4)CC3)n[nH]2)s1 [Entry 201, N-[(5-chlorothiophen-2-yl)methyl]-3-[1-(cyclopropylmethyl)piperidin-4-yl]-1H-pyrazol-5-amine]",> 100000
15,"C=CCOC(=O)N1CCC(c2n[nH]c(NCc3ccc(Cl)s3)c2C#N)CC1 [Entry 268, prop-2-en-1-yl 4-(5-[(5-chlorothiophen-2-yl)methyl]amino-4-cyano-1H-pyrazol-3-yl)piperidine-1-carboxylate]",1000 to 10000
16,"C=CCOC(=O)N1CCC(c2n[nH]c(NCc3ccc(Cl)s3)c2C)CC1 [Entry 271, prop-2-en-1-yl 4-(5-[(5-chlorothiophen-2-yl)methyl]amino-4-methyl-1H-pyrazol-3-yl)piperidine-1-carboxylate]",> 100000
17,"COCC(C)(C)C(=O)n1nc(C2(C)CCCNC2=O)cc1NCc1ccc(Cl)s1 (stereo not drawn) [Entry 120, 3-(5-[(5-chlorothiophen-2-yl)methyl]amino-1-(3-methoxy-2,2-dimethylpropanoyl)-1H-pyrazol-3-yl)-3-methylpiperidin-2-one]",1000 to 10000
18,"CC(C)(C)OC(=O)N1CCC(c2cc(NCc3ccc(Cl)s3)n(C(=O)c3ccsc3)n2)CC1 [Entry 301, tert-butyl 4-(5-[(5-chlorothiophen-2-yl)methyl]amino-1-(thiophene-3-carbonyl)-1H-pyrazol-3-yl)piperidine-1-carboxylate]",< 100
19,"O=S(=O)(N1CCOCC1)N1CCC(c2cc(N(Cc3ccc(Cl)s3)S(=O)(=O)N3CCOCC3)[nH]n2)CC1 [Entry 238, N-[(5-chlorothiophen-2-yl)methyl]-N-3-[1-(morpholine-4-sulfonyl)piperidin-4-yl]-1H-pyrazol-5-ylmorpholine-4-sulfonamide]",1000 to 10000
20,"C=CCOC(=O)N1CC(c2cc(NCc3ccc(Cl)s3)[nH]n2)C1 [Entry 258, prop-2-en-1-yl 3-(5-[(5-chlorothiophen-2-yl)methyl]amino-1H-pyrazol-3-yl)azetidine-1-carboxylate]",10000 to 100000
21,"CC(C)(C)C(=O)N1CC(c2cc(NCc3ccc(Cl)s3)n(C(=O)C(C)(C)C)n2)C1 [Entry 96, 1-[3-(5-[(5-chlorothiophen-2-yl)methyl]amino-1-(2,2-dimethylpropanoyl)-1H-pyrazol-3-yl)azetidin-1-yl]-2,2-dimethylpropan-1-one]",100 to 1000
22,"Cc1c(C2CCN(C(=O)OC(C)(C)C)CC2)nn(C(=O)C(C)(C)C)c1NCc1ccc(Cl)s1 [Entry 293, tert-butyl 4-(5-[(5-chlorothiophen-2-yl)methyl]amino-1-(2,2-dimethylpropanoyl)-4-methyl-1H-pyrazol-3-yl)piperidine-1-carboxylate]",100 to 1000
23,"C=CCOC(=O)N1CCN(S(C)(=O)=O)CC1c1cc(NCc2ccc(Cl)s2)n(C(=O)c2cscn2)n1 (stereo not drawn) [Entry 242, prop-2-en-1-yl 2-(5-[(5-chlorothiophen-2-yl)methyl]amino-1-(1,3-thiazole-4-carbonyl)-1H-pyrazol-3-yl)-4-methanesulfonylpiperazine-1-carboxylate]",100 to 1000

# Further lines, results first:
row,IC50 [nM],SMILES
1,< 100,"C=CCOC(=O)N1CCCC1c1cc(NCc2ccc(Cl)s2)n(C(=O)C(C)(C)C)n1 (stereo not drawn) [Entry 247, prop-2-en-1-yl 2-(5-[(5-chlorothiophen-2-yl)methyl]amino-1-(2,2-dimethylpropanoyl)-1H-pyrazol-3-yl)pyrrolidine-1-carboxylate]"
2,< 100,"C=CCOC(=O)N1CCC(c2cc(NCc3ccc(Cl)s3)n(C(=O)C(C)(C)C)n2)CC1 [Entry 262, prop-2-en-1-yl 4-(5-[(5-chlorothiophen-2-yl)methyl]amino-1-(2,2-dimethylpropanoyl)-1H-pyrazol-3-yl)piperidine-1-carboxylate]"
3,< 100,"COc1ccc(C(=O)n2nc(C3CCCN3)cc2NCc2ccc(Cl)s2)c(OC)c1 (stereo not drawn) [Entry 148, N-[(5-chlorothiophen-2-yl)methyl]-1-(2,4-dimethoxybenzoyl)-3-(pyrrolidin-2-yl)-1H-pyrazol-5-amine]"
4,< 100,"O=C(N1CCOCC1)N1C2CCC1CC(c1cc(NCc3ccc(Cl)s3)n(C(=O)c3cscn3)n1)C2 (stereo not drawn) [Entry 213, N-[(5-chlorothiophen-2-yl)methyl]-3-[8-(morpholine-4-carbonyl)-8-azabicyclo[3.2.1]octan-3-yl]-1-(1,3-thiazole-4-carbonyl)-1H-pyrazol-5-amine]"
5,< 100,"C=CCOC(=O)N1C2CCC1CC(c1cc(NCc3ccc(Cl)s3)n(C(=O)C(C)(C)C)n1)C2 (stereo not drawn) [Entry 254, prop-2-en-1-yl 3-(5-[(5-chlorothiophen-2-yl)methyl]amino-1-(2,2-dimethylpropanoyl)-1H-pyrazol-3-yl)-8-azabicyclo[3.2.1]octane-8-carboxylate]"
6,< 100,"COc1ccccc1C(=O)n1nc(C2CCCN(C(=O)OC(C)(C)C)C2)cc1NCc1ccc(Cl)s1 (stereo not drawn) [Entry 281, tert-butyl 3-(5-[(5-chlorothiophen-2-yl)methyl]amino-1-(2-methoxybenzoyl)-1H-pyrazol-3-yl)piperidine-1-carboxylate]"
7,< 100,"C=CCOC(=O)N1CCC(c2nn(C(=O)C(C)(C)C)c(NCc3ccc(Cl)s3)c2C#N)CC1 [Entry 267, prop-2-en-1-yl 4-(5-[(5-chlorothiophen-2-yl)methyl]amino-4-cyano-1-(2,2-dimethylpropanoyl)-1H-pyrazol-3-yl)piperidine-1-carboxylate]"
8,< 100,"COc1ccccc1C(=O)n1nc(C2CCN(C(=O)OC(C)(C)C)CC2)cc1NCc1ccc(Cl)s1 [Entry 295, tert-butyl 4-(5-[(5-chlorothiophen-2-yl)methyl]amino-1-(2-methoxybenzoyl)-1H-pyrazol-3-yl)piperidine-1-carboxylate]"
9,< 100,"C=CCOC(=O)N1CCCC(c2cc(NCc3ccc(Cl)s3)n(C(=O)C(C)(C)C)n2)CC1 (stereo not drawn) [Entry 261, prop-2-en-1-yl 4-(5-[(5-chlorothiophen-2-yl)methyl]amino-1-(2,2-dimethylpropanoyl)-1H-pyrazol-3-yl)azepane-1-carboxylate]"
10,< 100,"COCC(C)(C)C(=O)n1nc(C2CCCN(C(=O)OC(C)(C)C)C2)cc1NCc1ccc(Cl)s1 (stereo not drawn) [Entry 285, tert-butyl 3-(5-[(5-chlorothiophen-2-yl)methyl]amino-1-(3-methoxy-2,2-dimethylpropanoyl)-1H-pyrazol-3-yl)piperidine-1-carboxylate]"
